{
  "source": "ChEMBL document CHEMBL1201862",
  "about": "“PubChem BioAssay data set” (2004)",
  "assay_in_all_cases": "inhibition of tumour cell growth, NCI panel, 48 h",
  "key": {"[1]": {"test_system": "OVCAR-4"}, "[2]": {"test_system": "U-251"}, "[3]": {"test_system": "SK-MEL-5"}, "[4]": {"test_system": "OVCAR-8"}, "[5]": {"test_system": "MOLT-4"}, "[6]": {"test_system": "RPMI-8226"}, "[7]": {"test_system": "M14"}, "[8]": {"test_system": "NCI-H23"}, "[9]": {"test_system": "HCT-116"}, "[10]": {"test_system": "MCF7"}, "[11]": {"test_system": "MDA-N"}, "[12]": {"test_system": "UACC-62"}, "[13]": {"test_system": "KM12"}, "[14]": {"test_system": "A498"}, "[15]": {"test_system": "SNB-75"}, "[16]": {"test_system": "MDA-MB-231"}, "[17]": {"test_system": "786-0"}, "[18]": {"test_system": "HT-29"}, "[19]": {"test_system": "NCI-H522"}, "[20]": {"test_system": "BT-549"}, "[21]": {"test_system": "Malme-3M"}, "[22]": {"test_system": "HCT-15"}, "[23]": {"test_system": "SNB-19"}, "[24]": {"test_system": "T47D"}, "[25]": {"test_system": "Hs-578T"}, "[26]": {"test_system": "SF-539"}, "[27]": {"test_system": "RXF 393"}, "[28]": {"test_system": "COLO 205"}, "[29]": {"test_system": "OVCAR-3"}, "[30]": {"test_system": "NCI-H226"}, "[31]": {"test_system": "EKVX"}, "[32]": {"test_system": "TK-10"}, "[33]": {"test_system": "SK-MEL-28"}, "[34]": {"test_system": "NCI-H460"}, "[35]": {"test_system": "SF-295"}, "[36]": {"test_system": "DU-145"}, "[37]": {"test_system": "PC-3"}, "[38]": {"test_system": "SN12C"}, "[39]": {"test_system": "ACHN"}, "[40]": {"test_system": "UACC-257"}, "[41]": {"test_system": "CCRF-CEM"}, "[42]": {"test_system": "CAKI-1"}, "[43]": {"test_system": "K562"}, "[44]": {"test_system": "MDA-MB-435"}, "[45]": {"test_system": "SF-268"}, "[46]": {"test_system": "SK-OV-3"}, "[47]": {"test_system": "OVCAR-5"}, "[48]": {"test_system": "HOP-62"}, "[49]": {"test_system": "UO-31"}, "[50]": {"test_system": "LOX IMVI"}, "[51]": {"test_system": "A549"}, "[52]": {"test_system": "SW-620"}, "[53]": {"test_system": "SK-MEL-2"}, "[54]": {"test_system": "NCI/ADR-RES"}},
  "note": "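Compound exposure: 48 hours, 5 concentrations, 96-well plates. GI50: concentration for 50% inhibition of growth.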 Calls of active or inactive are those of the source. No stated cut-off is given here; in the data, active = GI50 up to about 1.1 µM and inactive = higher.",
  "data": [
    {"smiles": "CC(C)(C)OC(=O)NCCCCC(NC(=O)c1ccccc1)C(N)=O", "note": "(centres undefined)", "values": [
      {"measurement": "GI50", "setting": "[1]", "result": "> 100 µM (inactive)"},
      {"measurement": "GI50", "setting": "[2]", "result": "> 100 µM (inactive)"},
      {"measurement": "GI50", "setting": "[3]", "result": "> 100 µM (inactive)"},
      {"measurement": "GI50", "setting": "[4]", "result": "> 100 µM (inactive)"},
      {"measurement": "GI50", "setting": "[5]", "result": "46.6 µM (inactive)"},
      {"measurement": "GI50", "setting": "[6]", "result": "> 100 µM (inactive)"},
      {"measurement": "GI50", "setting": "[7]", "result": "> 100 µM (inactive)"},
      {"measurement": "GI50", "setting": "[8]", "result": "> 100 µM (inactive)"},
      {"measurement": "GI50", "setting": "[9]", "result": "> 100 µM (inactive)"},
      {"measurement": "GI50", "setting": "[10]", "result": "> 100 µM (inactive)"},
      {"measurement": "GI50", "setting": "[11]", "result": "> 100 µM (inactive)"},
      {"measurement": "GI50", "setting": "[12]", "result": "71.9 µM (inactive)"},
      {"measurement": "GI50", "setting": "[13]", "result": "> 100 µM (inactive)"},
      {"measurement": "GI50", "setting": "[14]", "result": "> 100 µM (inactive)"},
      {"measurement": "GI50", "setting": "[15]", "result": "> 100 µM (inactive)"},
      {"measurement": "GI50", "setting": "[16]", "result": "> 100 µM (inactive)"},
      {"measurement": "GI50", "setting": "[17]", "result": "> 100 µM (inactive)"},
      {"measurement": "GI50", "setting": "[18]", "result": "> 100 µM (inactive)"},
      {"measurement": "GI50", "setting": "[19]", "result": "> 100 µM (inactive)"},
      {"measurement": "GI50", "setting": "[20]", "result": "> 100 µM (inactive)"},
      {"measurement": "GI50", "setting": "[21]", "result": "> 100 µM (inactive)"},
      {"measurement": "GI50", "setting": "[22]", "result": "> 100", "unit": "µM"},
      {"measurement": "GI50", "setting": "[23]", "result": "> 100 µM (inactive)"},
      {"measurement": "GI50", "setting": "[24]", "result": "> 100 µM (inactive)"},
      {"measurement": "GI50", "setting": "[25]", "result": "> 100 µM (inactive)"},
      {"measurement": "GI50", "setting": "[26]", "result": "> 100 µM (inactive)"},
      {"measurement": "GI50", "setting": "[27]", "result": "> 100 µM (inactive)"},
      {"measurement": "GI50", "setting": "[28]", "result": "> 100 µM (inactive)"},
      {"measurement": "GI50", "setting": "[29]", "result": "> 100 µM (inactive)"},
      {"measurement": "GI50", "setting": "[30]", "result": "> 10 µM (inactive)"},
      {"measurement": "GI50", "setting": "[31]", "result": "> 100 µM (inactive)"},
      {"measurement": "GI50", "setting": "[32]", "result": "> 100 µM (inactive)"},
      {"measurement": "GI50", "setting": "[33]", "result": "> 100 µM (inactive)"},
      {"measurement": "GI50", "setting": "[34]", "result": "> 100 µM (inactive)"},
      {"measurement": "GI50", "setting": "[35]", "result": "> 100 µM (inactive)"},
      {"measurement": "GI50", "setting": "[36]", "result": "> 100 µM (inactive)"},
      {"measurement": "GI50", "setting": "[37]", "result": "> 100 µM (inactive)"},
      {"measurement": "GI50", "setting": "[38]", "result": "> 100 µM (inactive)"},
      {"measurement": "GI50", "setting": "[39]", "result": "> 100 µM (inactive)"},
      {"measurement": "GI50", "setting": "[40]", "result": "> 100 µM (inactive)"},
      {"measurement": "GI50", "setting": "[41]", "result": "> 100 µM (inactive)"},
      {"measurement": "GI50", "setting": "[42]", "result": "> 100 µM (inactive)"},
      {"measurement": "GI50", "setting": "[43]", "result": "54.7 µM (inactive)"},
      {"measurement": "GI50", "setting": "[44]", "result": "> 100 µM (inactive)"},
      {"measurement": "GI50", "setting": "[45]", "result": "> 100 µM (inactive)"},
      {"measurement": "GI50", "setting": "[46]", "result": "99.1 µM (inactive)"},
      {"measurement": "GI50", "setting": "[47]", "result": "> 100 µM (inactive)"},
      {"measurement": "GI50", "setting": "[48]", "result": "> 100 µM (inactive)"},
      {"measurement": "GI50", "setting": "[49]", "result": "> 100 µM (inactive)"},
      {"measurement": "GI50", "setting": "[50]", "result": "> 100 µM (inactive)"},
      {"measurement": "GI50", "setting": "[51]", "result": "> 100 µM (inactive)"},
      {"measurement": "GI50", "setting": "[52]", "result": "> 100 µM (inactive)"},
      {"measurement": "GI50", "setting": "[53]", "result": "> 100 µM (inactive)"},
      {"measurement": "GI50", "setting": "[54]", "result": "> 100 µM (inactive)"}
    ]}
  ]
}
